The results in this text go back to US10434038B2, “Solid phosphonate salts as an add-on in endodontics” (smartodont GmbH, priority 2016, dated 2019).

Structures are written as SMILES. “Also recorded” adds a separate entry of the source.

Data set [1] can be described thus: available chlorine over one hour in mixtures of a chelator and a sodium hypochlorite solution, titration with sodium thiosulfate (FIGS. 2 and 3). Type of data set: physicochemical. To be noted: for loss of available hypochlorite anions: admixture into sodium hypochlorite solution. The source says: To measure the amount of hypochlorite, it has to be transferred by acidification to chlorine, which oxidizes potassium iodide to iodine. The latter is then titrated with a sodium thiosulfate solution.
In particular, the chlorine reduction from a 9 weight percentage and 18 weight percentage of Na4HEDP with reference to the total weight of the sodium hypochlorite solution as well as the chlorine reduction from a 3 weight percentage and 18 weight percentage of Na4EDTA with reference to the total weight of the sodium hypochlorite solution, respectively, was monitored over one hour, which is the normal duration of an endodontic treatment. The Na4HEDP and the Na4EDTA were each dissolved in a sodium hypochlorite solution comprising 1 weight percentage of sodium hypochlorite with reference to the total weight of the sodium hypochlorite solution.
The amount of chlorine over time was compared with a control solution of 1 weight percentage of pure sodium hypochlorite. In order to determine the amount of the available chlorine, aliquots of each solution (approximately 0.5 grams) were removed after 1 minute, 10 minutes, 20 minutes, 30 minutes and 60 minutes and assessed for their amount of available chlorine using a titration apparatus. Thereby, a 0.1 molar sodium thiosulfate solution was used as titrator.
In FIG. 3, the same measurements are performed using the same amounts of Na4HEDP and Na4EDTA as in FIG. 2, whereby these chelators are each admixed into a NaOCl solution comprising 5 weight percentage of NaOCl.

The nature of data set [2]: evolution of the pH-value of calcium hydroxide with Na4HEDP in distilled water (FIG. 4). Type of data set: physicochemical. The settings on record: 1 gram calcium hydroxide and 0.1 gram Na4HEDP in 10 milliliter distilled water, 10 minutes. As to the method: FIG. 4 depicts the evolution of the pH-value over time determined for the admixture of Na4HEDP and calcium hydroxide in solid form and only calcium hydroxide in solid form, respectively, into distilled water. The solutions are prepared by mixing 1 gram of calcium hydroxide in solid form and 0.1 gram of Na4HEDP in a glass vial. 10 milliliter of distilled water was added, and the pH measurement was started immediately and continued for 10 minutes. As a control, the pH value of 1 gram pure calcium hydroxide dissolved in 10 milliliter of distilled water was recorded, too. […] Consequently, the addition of Na4HEDP to calcium hydroxide can trigger an earlier onset of the desired disinfecting effect. In addition, the binding capacity of Na4HEDP to Ca^2+ makes it easier to remove the calcium hydroxide slurry from the root canal system before the canal is filled with an alloplastic material.

The mark [3] stands for this setting: 18 weight percentage chelator in 1 weight percentage NaOCl solution, after one hour.
Setting [4] is: 18 weight percentage chelator in 1 weight percentage NaOCl solution, at the start.

Regarding `O=C([O-])CN(CCN(CC(=O)[O-])CC(=O)[O-])CC(=O)[O-].[Na+].[Na+].[Na+].[Na+]` [Na4EDTA, reference compound], the “relative amount of chlorine compared to pure NaOCl control” value in data set [1] (3 weight percentage chelator in 1 weight percentage NaOCl solution, after one hour) is listed as “below 25 weight percentage”; in data set [1] (3 weight percentage chelator in 1 weight percentage NaOCl solution, at the start), “about 95 weight percentage”; in data set [1] (setting [3]) it was “below 25 weight percentage”; in data set [1] (setting [4]), “about 75 weight percentage”. In addition, the “loss of available hypochlorite anions” value in data set [1] (over the course of one hour) was “pronounced loss”. Besides, in data set [1] (chelator in 5 weight percentage NaOCl solution, after one hour), the amount of chlorine entry is recorded as “zero”.
Turning to `CC(O)(P(=O)([O-])[O-])P(=O)([O-])[O-].[Na+].[Na+].[Na+].[Na+]` [Na4HEDP, tetrasodium (1-hydroxyethane)-1,1′-di-phosphonate], the “relative amount of chlorine compared to pure NaOCl control” value is given as “about 90 weight percentage” in data set [1] (9 weight percentage chelator in 1 weight percentage NaOCl solution, after one hour); about 100 percentage in data set [1] (9 weight percentage chelator in 1 weight percentage NaOCl solution, at the start); “about 75 weight percentage” in data set [1] (setting [3]); about 100 percentage in data set [1] (setting [4]). Moreover, the “loss of available hypochlorite anions” value in data set [1] (over the course of one hour) is “no significant loss; also recorded: does not cause any significant loss”. For the same molecule, the “drop of the amount of chlorine” value in data set [1] (chelator in 5 weight percentage NaOCl solution, over the course of one hour) is given as “less than 25 percentage”. Further, the “pH value of the slurry compared to calcium hydroxide alone” value in data set [2] is “higher pH value which increases faster”.
